Measurements taken from patent US11434237B2, “Selective ligands for tau aggregates” (KARIN & STEN MORTSTEDT CBD SOLUTIONS AB, priority 2017, dated 2022).

Key:
[1] = molecular target: T1, Aβ aggregates (Homo sapiens, UniProt P05067); assay: Compound and antibody 4G8 double staining of AD brain tissue sections; type: binding; conditions: for Overlap between Fluorescence from tested compound and fluorescence from 4G8 observed / Fluorescence from tested compound observed: 100 nM compound, human AD brain tissue sections; for Overlap between Fluorescence from tested compound and fluorescence from 4G8 observed: Aβ antibody 4G8; for Fluorescence from tested compound observed: double staining with Aβ antibody 4G8; for Fluorescence from 4G8 observed: signal of Aβ antibody 4G8 in the section stained with 100 nM of the compound
T1 construct: compound and antibody double staining of Aβ or tau aggregates; from tissue; host or cells: human AD brain tissue sections (20 μm)
Method: (§1) To achieve compound and antibody double staining of Aβ or tau aggregates, tissue sections (20 μm) from human AD brain were fixed in 70% EtOH at 4° C. for 3 min, rehydrated in distilled water and then incubated in PBS for 30 min. Sections were blocked and permeabilized in PBS with 5% normal goat serum and 0.1% triton X-100 (blocking buffer) for 1 h at room temperature (RT). Antibody 4G8 (Biolegend, San Diego, Calif., USA) reactive to Aβ, and AT100 (Thermo Fisher Scientific, Waltham, Mass., USA) directed against tau phosphorylated at […] (3) were diluted 1:500 and 1:1000, respectively, in blocking buffer and added to the sections. After 16 h incubation at 4° C. unbound antibody was removed by washing in PBS with 0.1% triton X-100 (PBS-T) 3×10 min. To visualize antibody binding to Aβ or tau aggregates sections were incubated with goat anti-mouse secondary antibody labelled with Alexa 647 (Thermo Fisher Scientific). The antibody was diluted 1:200 in blocking buffer and after 1 h incubation at RT sections were washed in PBS 3×10 min. Example Compound 3a, Example Compound 3b, Example Compound 3c, Example Compound 3d, Example Compound 3e, Example Compound 3f, Example Compound 3g, Example Compound 3h, Example Compound 3i, Example Compound 3j, Example Compound 3k, Example Compound 3m, Example Compound 3n, Example Compound 3o, Example Compound 3p, Example Compound 3q, Example Compound 3r, Example Compound 3s, Example Compound 3t, Example Compound 3u, Example Compound 8a, Comparative Example 1, Comparative Example 2, Comparative Example 3 and Comparative Example 4 were dissolved in DMSO to a concentration of 1.5 mM and then further diluted in PBS to a final concentration of 100 nM compound prior to staining. The tissue sections were then stained for 30 min at RT with these freshly prepared solutions containing 100 nM of the respective compound in PBS. After three washes in PBS the sections were mounted in Dako mounting medium for fluorescence (Dako Cytomation, Glostrup, Denmark) and allowed to dry overnight before analysis. Fluorescence images were collected using an inverted LSM 780 confocal microscope (Carl Zeiss, Oberkochen, Germany) with the following excitation/emission wavelengths optimized for each compound: 458/484-600 (Comparative Example 1, Comparative Example 3), 561/569-648 (Example Compound 3a, Example Compound 3b, Example Compound 3c, Example Compound 3d, Example Compound 3e, Example Compound 3f, Example Compound 3g, Example Compound 3h, Example Compound 3i, Example Compound 3j, Example Compound 3k, Example Compound 3m, Example Compound 3n, Example Compound 3o, Example Compound 3p, Example Compound 3q, Example Compound 3r, Example Compound 3s, Example Compound 3t, Example Compound 3u, Example Compound 8a, Comparative Example 2 and Comparative Example 4) and 633/638-755 (Alexa 647). To visualize autofluorescent lipofuscin excitation/emission wavelengths 405/410-480 or 405/410-514 were used.

[2] = molecular target: T2, tau aggregates (Homo sapiens, UniProt P10636); assay: Compound and antibody AT100 double staining of AD brain tissue sections; type: binding; conditions: for Labelling of immune-positive NFTs and dystrophic neurites / Fluorescence from tested compound observed / Overlap between Fluorescence from tested compound and fluorescence from AT-100 observed: 100 nM compound; for Labelling of immune-positive NFTs and dystrophic neurites: AT100 co-staining, AD brain sections; for Fluorescence from tested compound observed / Overlap between Fluorescence from tested compound and fluorescence from AT-100 observed: human AD brain tissue sections; for Fluorescence from tested compound observed: double staining with tau antibody AT-100; for Overlap between Fluorescence from tested compound and fluorescence from AT-100 observed: tau antibody AT-100; for Fluorescence from AT-100 observed: signal of tau antibody AT-100 in the section stained with 100 nM of the compound
T2 construct: tissue sections (20 μm) from human AD brain; from tissue; host or cells: human AD brain tissue sections (20 μm)
Method: as §1

[3] = system: Aβ and tau deposits; assay: Co-staining of AD brain sections with q-FTAA-CN and Example Compound 3a; type: binding, human; conditions: simultaneous staining, 100 nM q-FTAA-CN and 100 nM Example Compound 3a
Method: Frozen brain sections (20 μm) were fixed in 96% EtOH, rehydrated in 50% EtOH and de-ionized water and then incubated in phosphate buffered saline (PBS, 10 mM phosphate, 140 mM NaCl, 2.7 mM KCl, pH 7.4) for 10 min. Solutions containing 100 nM PBB3 and 100 nM Example Compound 3b or 100 nM q-FTAA-CN and 100 nM Example Compound 3a in PBS were added to the sections. After 30 min, the sections were washed with PBS and mounted with Dako fluorescent mounting medium (Dako Cytomation, Glostrup, Denmark). The mounting medium was allowed to solidify over night before collecting emission spectra of the compounds bound to misfolded A ? and tau using an inverted LSM 780 confocal microscope (Carl Zeiss, Oberkochen, Germany) with excitation wavelengths at 405 nm (PBB3 and q-FTAA-CN) and 561 nm (Example Compound 3a and Example Compound 3b).

[4] = molecular target: T2, tau aggregates; assay: Example Compound 3b staining of AD brain sections pre-incubated with q-FTAA-CN; type: binding; conditions: FIG. 7H, pre-incubated with 1 μM q-FTAA-CN, then 10 nM Example Compound 3b
Method: Frozen brain sections (20 μm) were fixed in 96% EtOH, rehydrated in 50% EtOH and de-ionized water and then incubated in phosphate buffered saline (PBS, 10 mM phosphate, 140 mM NaCl, 2.7 mM KCl, pH 7.4) for 10 min. The sections were stained with solutions containing 1 ? M PBB3 or 1 ? M q-FTAA-CN in PBS for 30 min and after rinsing three times with PBS, the sections was stained with a solution containing 10 nM Example Compound 3b. After 30 min, the sections were washed with PBS and mounted with Dako fluorescent mounting medium (Dako Cytomation, Glostrup, Denmark). The mounting medium was allowed to solidify over night before collecting emission spectra of the compounds bound to misfolded Aβ and tau using an inverted LSM 780 confocal microscope (Carl Zeiss, Oberkochen, Germany) with excitation wavelengths at 405 nm (PBB3 and q-FTAA-CN) and 561 nm (Example Compound 3b).

T2 sequence (P10636 1-441 isoform P10636-8): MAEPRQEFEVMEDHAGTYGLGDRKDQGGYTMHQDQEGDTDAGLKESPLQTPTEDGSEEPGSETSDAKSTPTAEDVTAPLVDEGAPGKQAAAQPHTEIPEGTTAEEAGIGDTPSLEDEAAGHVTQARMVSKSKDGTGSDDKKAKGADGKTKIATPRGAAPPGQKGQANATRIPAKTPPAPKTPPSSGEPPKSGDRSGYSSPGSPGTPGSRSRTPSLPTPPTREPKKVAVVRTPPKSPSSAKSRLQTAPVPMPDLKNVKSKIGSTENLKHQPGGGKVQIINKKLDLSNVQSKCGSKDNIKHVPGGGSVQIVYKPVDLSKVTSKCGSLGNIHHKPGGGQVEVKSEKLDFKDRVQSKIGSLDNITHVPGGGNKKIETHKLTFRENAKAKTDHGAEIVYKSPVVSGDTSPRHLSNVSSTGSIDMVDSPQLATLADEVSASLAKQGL
T1 sequence (P05067 672-713 limits assumed): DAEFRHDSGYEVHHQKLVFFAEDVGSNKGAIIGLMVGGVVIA

| Overlap between Fluorescence from tested compound and fluorescence from 4G8 observed [1] | Fluorescence from tested compound observed [1] | Fluorescence from 4G8 observed [1] | Fluorescence from tested compound observed [2] | Overlap between Fluorescence from tested compound and fluorescence from AT-100 observed [2] | Fluorescence from AT-100 observed [2] | Fluorescence from q-FTAA-CN observed ([4]; listed as q-FTAA) | SMILES | Labelling of immune-positive NFTs and dystrophic neurites [2] | Deposits labelled [3] | Fluorescence from Example 3a observed ([3]; FIG. 7A-C) | Overlap between Fluorescence from Example 3a and fluorescence from q-FTAA-CN ([3]; FIG. 7A-C) | Fluorescence from q-FTAA-CN observed ([3]; FIG. 7A-C) | Fluorescence from q-FTAA-CN observed [4] |
| --- | --- | --- | --- | --- | --- | --- | --- | --- | --- | --- | --- | --- | --- |
| no correlation and no | yes | yes | yes | yes | yes | – | CC[n+]1c(/C=C/c2ccc(-c3ccc(C(=O)OC)s3)s2)sc2ccccc21 [Example Compound 3a] | labelled both immune-positive NFTs and dystrophic neurites | tau aggregates (arrows) displayed Example Compound 3a fluorescence | yes | no | – | – |
| – | – | – | – | – | – | labelled both Aβ deposits and NFTs | N#Cc1cc(CC(=O)O)c(-c2ccc(-c3sc(-c4ccc(C(=O)O)s4)cc3CC(=O)O)s2)s1 [q-FTAA-CN, reference compound] | – | selectively labelled Aβ deposits | – | – | yes | observed from both Aβ deposits (small arrow-heads) and tau aggregates and yes |
| no correlation and no | yes | yes | yes | yes | yes | – | CC[n+]1c(/C=C/c2ccc(-c3ccc(OC)s3)s2)sc2ccccc21.[I-] [Example Compound 3h] | labelled both immune-positive NFTs and dystrophic neurites | – | – | – | – | – |
| no correlation and no | yes | yes | yes | yes | yes | – | CC[n+]1c(/C=C/c2ccc(-c3ccc(CC(=O)OC)s3)s2)sc2ccccc21.[I-] [Example Compound 3d] | labelled both immune-positive NFTs and dystrophic neurites | – | – | – | – | – |
| no correlation and no | yes | yes | yes | yes | yes | – | CC[n+]1c(/C=C/c2ccc(-c3ccc4c(c3)OCO4)s2)sc2ccccc21.[I-] [Example Compound 3m] | labelled both immune-positive NFTs and dystrophic neurites | – | – | – | – | – |
| no correlation and no | yes | yes | yes | yes | yes | – | CC[n+]1c(/C=C/c2ccc(-c3cccc4nsnc34)s2)sc2ccccc21.[I-] [Example Compound 3o] | labelled both immune-positive NFTs and dystrophic neurites | – | – | – | – | – |

| SMILES | Overlap between Fluorescence from tested compound and fluorescence from 4G8 observed [1] | Fluorescence from tested compound observed [1] | Fluorescence from 4G8 observed [1] | Fluorescence from tested compound observed [2] | Overlap between Fluorescence from tested compound and fluorescence from AT-100 observed [2] | Fluorescence from AT-100 observed [2] | Fluorescence from q-FTAA-CN observed ([4]; listed as q-FTAA) | Labelling of immune-positive NFTs and dystrophic neurites [2] | Deposits labelled [3] | Fluorescence from Example 3a observed ([3]; FIG. 7A-C) | Overlap between Fluorescence from Example 3a and fluorescence from q-FTAA-CN ([3]; FIG. 7A-C) | Fluorescence from q-FTAA-CN observed ([3]; FIG. 7A-C) | Fluorescence from q-FTAA-CN observed [4] |
| --- | --- | --- | --- | --- | --- | --- | --- | --- | --- | --- | --- | --- | --- |
| CC[n+]1c(/C=C/c2ccc(-c3ccc[se]3)s2)[se]c2ccc(OC)cc21.[I-] [Example Compound 3q] | no correlation and no | yes | yes | yes | yes | yes | – | labelled both immune-positive NFTs and dystrophic neurites | – | – | – | – | – |
| CC[n+]1c(/C=C/c2ccc(-c3ccc(C(=O)OC)[se]3)s2)sc2ccccc21.[I-] [Example Compound 3r] | no correlation and no | yes | yes | yes | yes | yes | – | labelled both immune-positive NFTs and dystrophic neurites | – | – | – | – | – |
| CC[n+]1c(/C=C/c2ccc(-c3ccc(C(=O)OC)[se]3)s2)[se]c2ccc(OC)cc21.[I-] [Example Compound 3p] | no correlation and no | yes | yes | yes | yes | yes | – | labelled both immune-positive NFTs and dystrophic neurites | – | – | – | – | – |
